Several values for one entry are separate records, joined by “and”; a condition that tells them apart may be missing. Equal entries are not always repeated.
Columns and labels:
[1] = Stability of crystalline material under warm humid conditions (40° C., 75% relative humidity), PXRD before and after; assay type: physicochemical; details: stored at 40° C., 75% relative humidity; stable = retained crystal form for at least two weeks by PXRD
Description: The stability of these compounds under warm humid conditions was assessed as follows:
The crystalline material was stored at 40° C. in an atmosphere of 75% relative humidity.
Compounds were classed as stable if they retained their crystal form for at least two weeks as verified by examination of PXRD patterns collected before and after exposure to humidity.
It can be seen that the pattern obtained after 2 months at 75% relative humidity and 40° C. (upper trace) in this case is different.

[2] = Bioavailability in vivo in rats: lithium in plasma and brain by ICP-OES after oral administration
Description: Male Sprague-Dawley rats, weighing 240-290 g, were treated through gastric intubation with formulations of lithium and compared with lithium carbonate as a reference. For each formulation a group of 12 rats was treated. 4 mEq/kg of lithium were orally administered, after suspension in 2 mL of corn seeds oil (“Olio Cuore”).
Four intervals' post-administration time (2, 24, 48 and 72 hours) were considered and three rats for each of them, employing the protocol used by Zaworotko and coworkers (Smith et al., Mol. Pharmaceutics 2013, 10, 4728-4738). At each time interval blood samples were collected through intra-cardiac […], these were treated with 50 μL of sodium heparin and centrifuged for 10 min at 1600 rpm. Plasma samples of approximately […] each were thus obtained. The brain was explanted in toto with perfusion with phosphate buffered saline (PBS) in order to preserve it in a viable state. The plasma and brain samples were immediately frozen at a temperature of −80° C., after measuring the weight of the brains.
In order to determine the concentration of the lithium by means of the ICP-OES (Inductively Coupled Plasma Optical Emission Spectometry) analysis, plasma and brain samples were purified and mineralized, respectively to obtain solutions suitable for analysis.
A 0.5 mL aliquot was taken from each sample, to which were added equal amounts of MilliQ water and concentrated nitric acid, in order to bring the lithium ion in solution in the form of LiNO3 and to obtain the precipitation of the proteins. At this point, each sample was sonicated for 10 min in an ultrasonic bath and diluted to a volume of 5.0 mL.
All samples were subjected to centrifugation for a period of 40 min, at a rotational speed of 6000 rpm, to obtain complete plasma proteins/solution separation. At the end supernatant liquid containing lithium was diluted to a final volume of 15 mL by adding MilliQ water. The obtained solutions were stored at a temperature of 4° C. until analysis.
The purpose of this phase was to obtain liquid samples, suitable to ICP-OES analysis, containing lithium in solution, starting from the solid organic tissue of the brain. The mineralization process allows the complete degradation of organic substances until the total transformation into simple inorganic substances.
The first operation performed was that the drying of the fabric, obtained through the use of a digester open PerkinElmer SPB 100-12: each sample of brain has been inserted in special containers Digitube™ 100 mL and maintained at a temperature of 80° C. for 120 min.
The second step involved the mineralization true and proper brain: each sample were added to 10 mL of concentrated nitric acid and 1.0 mL of hydrogen peroxide, then the system was brought to a temperature of 120° C. for 120 min. until the complete mineralization. With this procedure you get the desired biological degradation of organic compounds and the consequent passage of lithium in solution. The solutions thus obtained were collected, brought to a final volume of 20 mL with MilliQ water and preserved at a temperature of 4° C. until time of analysis.
In order to obtain the determination of lithium ion concentrations in the samples previously prepared, optical emission spectrometry inductively coupled plasma ICP-OES was used (PerkinElmer Optima 8000 spectrometer).
The analysis was conducted at the fixed wavelength of lithium (λ=670.784 nm) and the intensity of the radiation emitted by each sample was measured and compared standard solutions.
Plasma and brain concentration data were processed using a non-compartmental approach using WinNonlin® software (Pharsight Corporation, USA) and Microsoft Excel XP (Microsoft Corporation, […]).

[3] = rat brain, 4 mEq/kg lithium oral, non-compartmental
[4] = rat plasma, 4 mEq/kg lithium oral, non-compartmental

## {[Li(p-toluenesulfonate)]•H30}n [Compound 31]
[1]
  Stable?: No

## CC1(C)C2CCC1(CS(=O)(=O)[O-])C(=O)C2.CC1(C)C2CCC1(CS(=O)(=O)[O-])C(=O)C2.NC(N)=O.NC(N)=O.O.O.[Li+].[Li+] (centres unmarked) [Compound 28, [Li2(camphorsulphonate)2(urea)2 (water)2]]
[1]
  Stable?: No

## [Li(hydrogen maleate)(sarcosine)(water)] [Compound 27]
[1]
  Stable?: No

## O=C([O-])c1ccccc1.[Li+] [Compound 18, [Li (benzoate)]n]
[1]
  Stable?: Yes

## [Li2 (fumarate)]n [Compound 15]
[1]
  Stable?: Yes

## CNCC(=O)O.O.O=C([O-])c1cccnc1.[Li+] [Compound 9, [Li(nicotinate)(sarcosine)(water)]n]
[1]
  Stable?: No

## O=C([O-])[O-].[Li+].[Li+] [Lithium carbonate, lithium carbonate, reference compound]
[2]; [3]
  Cmax (brain): 5.9900 µg/g
  Tmax (brain): 24 h
[2]; rat brain, 4 mEq/kg lithium oral, terminal phase
  t½_Lambda_z (brain): 13.7913 h
[2]; rat brain, 4 mEq/kg lithium oral, time 0 to last quantifiable point
  AUClast (brain): 232.4100 mg·h/g
[2]; rat brain, relative to lithium carbonate
  Relative Brain BA (UL crystal forms, oral vs Li2CO3, oral): 100.00%
[2]; [4]
  Cmax (plasma): 8.4133 µg/mL
  Tmax (plasma): 24 h
[2]; rat plasma, 4 mEq/kg lithium oral, terminal phase
  t½_Lambda_z (plasma): 7.3913 h
[2]; rat plasma, relative to lithium carbonate
  Relative Plasma BA (UL crystal forms, oral vs Li2CO3 oral): 100.00%
[2]; rat, 4 mEq/kg lithium oral, 2 h, lithium in brain, individual rats (three per time)
  BRAIN CONC., Time(h) 2.00: 0.60 µg/g and 1.43 µg/g and 0.68 µg/g
[2]; rat, 4 mEq/kg lithium oral, 2 h, lithium in plasma, individual rats (three per time)
  PLASMA CONC, Time(h) 2.00: 3.02 µg/mL and 4.82 µg/mL and 2.72 µg/mL
[2]; rat, 4 mEq/kg lithium oral, 24 h, lithium in brain, individual rats (three per time)
  BRAIN CONC., Time(h) 24.00: 7.89 µg/g and 4.55 µg/g and 5.53 µg/g
[2]; rat, 4 mEq/kg lithium oral, 24 h, lithium in plasma, individual rats (three per time)
  PLASMA CONC, Time(h) 24.00: 8.72 µg/mL and 5.32 µg/mL and 11.20 µg/mL
[2]; rat, 4 mEq/kg lithium oral, 48 h, lithium in brain, individual rats (three per time)
  BRAIN CONC., Time(h) 48.00: 3.35 µg/g and 2.89 µg/g and 3.43 µg/g
[2]; rat, 4 mEq/kg lithium oral, 48 h, lithium in plasma, individual rats (three per time)
  PLASMA CONC, Time(h) 48.00: 1.29 µg/mL and 1.18 µg/mL and 1.60 µg/mL
[2]; rat, 4 mEq/kg lithium oral, 72 h, lithium in brain, individual rats (three per time)
  BRAIN CONC., Time(h) 72.00: 0.54 µg/g and 0.52 µg/g and 0.55 µg/g
[2]; rat, 4 mEq/kg lithium oral, 72 h, lithium in plasma, individual rats (three per time)
  PLASMA CONC, Time(h) 72.00: 0.14 µg/mL and 0.06 µg/mL and 0.08 µg/mL

## NCCC(=O)O.NCCC(=O)O.O.O=C([O-])C(=O)[O-].[Li+].[Li+] [Compound 25, [Li2(oxalate)(beta-alanine)2(water)]n]
[1]
  Stable?: No

## CNCC(=O)O.O.O=C([O-])c1ccc(O)cc1.[Li+] [Compound 19, [Li(sarcosine)(4-hydroxybenzoate)(water)]n]
[1]
  Stable?: No

## CC1(C)C2CCC1(CS(=O)(=O)[O-])C(=O)C2.CNCC(=O)O.O.O.[Li+] (centres unmarked) [Compound 30, [Li(camphorsulfonate)(sarcosine)(water)2]]
[1]
  Stable?: No

## {[Li(malate) (water)2]•(imidazolium)}n [Compound 26]
[1]
  Stable?: No

## O=C(O)[C@@H]1CCCN1.O=C([O-])c1ccccc1.[Li+] [Compound 12, [Li(benzoate)(L-proline)]n]
[1]
  Stable?: Yes

## [Li2 (oxalate)]n [Compound 17]
[1]
  Stable?: Yes
